Measured values: EP0107214A2, “Pharmaceutical compositions containing benzoyl-phenyl ureas with anti-tumour activity” (DUPHAR INTERNATIONAL RESEARCH B.V, priority 1982, dated 1984)
Read-outs that look alike come from different tables or passages of the source.

Key:
B-16 malignant melanoma = B-16 malignant melanoma in C57BL/6 mice, tumor growth after intraperitoneal injection; format: in vivo
Procedure: The compounds were tested by intraperitoneal injections of suspensions of the compounds in an aqueous solution of polyvinyl pyrrolidone.
Mice with malignant melanomas were injected with 20 mg or 40 mg diflubenzuron in suspension or with the suspension medium (blank).
Finally compound 2) was given in doses of 20 mg each on days 0, 1 and 2.
Animals with growing tumors were treated with 100 mg of diflubenzuron alone (suspended in an aqueous solution of polyvinylpyrrolidone) or in combination with a metabolic inhibitor or a metabolic inducer according to the schedule given in Table XI.

melanoma B-16 cells = experiment: Malignant melanoma B-16 cells in vitro, cell count by Coulter Counter; format: cell-based; details: Mus musculus; for activity at 200 µg/mL / activity at 300 µg/mL / activity at 50 µg/mL: B16, 48 h; for activity at 200 µg/mL: 200 ug/ml; for activity at 500 µg/mL / activity at 5000 µg/mL: B16, 20 hours incubation, cells counted at 48 hours; for activity at 500 µg/mL: read-out: Percentage of controll cell growth when tested in an amount of 5 x 10^2 µg/ml; for activity at 5000 µg/mL: read-out: Percentage of controll cell growth when tested in an amount of 5 x 10^3 µg/ml; for activity at 300 µg/mL: 300 ug/ml; for activity at 50 µg/mL: 50 ug/ml
Procedure: Cells of malignant melanomas B-16 grow as a monolayer. The doubling time of this type of cells in a cell--culture is 12 to 16 hours. For this experiment 6 multi-well tissue culture plates having a flat bottom with a surface area of 6 cm^2 appeared to be suitable and have been used.
On day 0 a quantity of melanoma B-16 cells were brought on the cell-culture plates.
The test compounds were sonicated and then incubated without cells for 3 hours at 37°C.
Then the compound to be tested was administered to the plates with melanoma B-16 cells in the desired quantity (each test was done in triplicate). Thereafter the plates were incubated in a C02-incubator for 20 hours at 37°C. Then the incubation was stopped by removing the culture medium containing the test compound, the cells were washed twice, and fresh culture medium was added.
48 Hours after starting the incubation step the number of cells on each plate was measured by means of a microcell Coulter Counter. The results so obtained have been expressed as "percentage of controll cell growth".
In the above experiment the compounds to be tested have been used in the form of a suspension. Since it is not quite clear how much of the active compounds is dissolved, the above results cannot be compared very well.
Therefore a number of compounds has been dissolved in ethanol.

[1] = dissolved in ethanol, read-out: Percentage of controll cell growth (solution)
[2] = suspension, read-out: Percentage of controll cell growth (suspension)
[3] = 20 mg each on days 0, 1, 2, 3 and 4
[4] = 100 mg total, 20 mg each on day 0, 1, 2, 3 and 4
[5] = 10 mg each on days 0, 1, 2, 3 and 4

Cc1ccc2cc3c(ccc4ccccc43)c3c2c1CC3 [3-methylcholanthrene, 3-Methylcholanthrene, reference compound]
% change in tumor mass day 1 (B-16 malignant melanoma; mouse, in vivo): 122 (6) %
% change in tumor mass day 2 (B-16 malignant melanoma; mouse, in vivo): 223 (6) %
% change in tumor mass day 3 (B-16 malignant melanoma; mouse, in vivo): 364 (6) %
% change in tumor mass day 4 (B-16 malignant melanoma; mouse, in vivo): 417 (6) %
% change in tumor mass day 5 (B-16 malignant melanoma; mouse, in vivo): 363 (6) %

O=C(NC(=O)c1c(F)cccc1F)Nc1cc(Cl)c(Oc2ncc(C(F)(F)F)cc2Cl)c(Cl)c1 [Compound 2, 1-(2,6-difluorobenzoyl)-3-[3,5-dichloro-4-(3-chloro-5--trifluoromethyl-2-pyridyloxy)phenyl]urea]
Mean tumor Mass Day 1 (B-16 malignant melanoma; 20 mg each on days 0, 1 and 2): 191
activity at 200 µg/mL (melanoma B-16 cells; [1]): 72%
activity at 200 µg/mL (melanoma B-16 cells; [2]): 114%

O=C(NC(=O)c1c(F)cccc1F)Nc1ccc(Oc2ccc(Cl)cc2)c(Cl)c1 [Compound 3, 1-(2,6-difluorobenzoyl)-3-[3-chloro-4-(4-chlorophenoxy)phenyl]urea]
Mean tumor Mass Day 1 (B-16 malignant melanoma; [3]): 127
activity at 500 µg/mL (melanoma B-16 cells; suspension): 33%
activity at 5000 µg/mL (melanoma B-16 cells; suspension): 8%

O=C(NC(=O)c1ccccc1Cl)Nc1ccc(Cl)cc1 [Compound 5, 1-(2-chlorobenzoyl)-3-(4-chlorophenyl)urea]
Mean tumor Mass Day 1 (B-16 malignant melanoma; [3]): 198
activity at 500 µg/mL (melanoma B-16 cells; suspension): 98%
activity at 5000 µg/mL (melanoma B-16 cells; suspension): 86%

O=C(NC(=O)c1ccccc1Cl)Nc1ccc(OC(F)(F)F)cc1 [Compound 6, l-(2-chlorobenzoyl)-3-(4-trifluoromethoxyphenyl)urea]
Mean tumor Mass Day 1 (B-16 malignant melanoma; [3]): 229
activity at 300 µg/mL (melanoma B-16 cells; [1]): 95%
activity at 300 µg/mL (melanoma B-16 cells; [2]): 88%

O=C(NC(=O)c1c(F)cccc1F)Nc1ccc(Cl)cc1O [Compound 7]
% change in tumor mass day 1 (B-16 malignant melanoma; [4]): -23.4 (12) %
% change in tumor mass day 2 (B-16 malignant melanoma; [4]): -17.4 (12) %
% change in tumor mass day 3 (B-16 malignant melanoma; [4]): 25.1 (12) %
% change in tumor mass day 4 (B-16 malignant melanoma; [4]): 74.7 (10) %
% change in tumor mass day 5 (B-16 malignant melanoma; [4]): 127 (10) %
% change in tumor mass on day 11 (B-16 malignant melanoma; [4]): 699 (10) %
antitumor effect compared with parent compound diflubenzuron (in words) (B-16 malignant melanoma; [4]): more effective
activity at 50 µg/mL (melanoma B-16 cells; [1]): 39%
activity at 50 µg/mL (melanoma B-16 cells; [2]): 103%
activity at 300 µg/mL (melanoma B-16 cells; [1]): 0%
activity at 300 µg/mL (melanoma B-16 cells; [2]): 103%

O=C(NC(=O)c1c(F)cccc1F)Nc1ccc(Cl)c(O)c1 [Compound 8, 1-(2,6-difluorobenzoyl)-3-(4-chloro-3-hydroxyphenyl)urea]
% change in tumor mass day 1 (B-16 malignant melanoma; [4]): 39.5 (12) %
% change in tumor mass day 2 (B-16 malignant melanoma; [4]): 52.4 (12) %
% change in tumor mass day 3 (B-16 malignant melanoma; [4]): 91.2 (12) %
% change in tumor mass day 4 (B-16 malignant melanoma; [4]): 149 (12) %
% change in tumor mass day 5 (B-16 malignant melanoma; [4]): 223 (12) %
% change in tumor mass on day 11 (B-16 malignant melanoma; [4]): 930 (12) %
antitumor effect compared with parent compound diflubenzuron (in words) (B-16 malignant melanoma; [4]): not active at all
activity at 300 µg/mL (melanoma B-16 cells; [1]): 0%
activity at 300 µg/mL (melanoma B-16 cells; [2]): 63%
activity at 500 µg/mL (melanoma B-16 cells; suspension): 51%
activity at 5000 µg/mL (melanoma B-16 cells; suspension): 53%

O=C(NC(=O)c1ccccc1Cl)Nc1ccc(OC(F)(F)F)cc1O [Compound 9, 1-(2-chlorobenzoyl)-3-(2-hydroxy-4-trifluoromethoxyphenyl)urea]
activity at 500 µg/mL (melanoma B-16 cells; suspension): 100%
activity at 5000 µg/mL (melanoma B-16 cells; suspension): 70%

N#Cc1ccc(NC(=O)NC(=O)c2c(F)cccc2F)cc1 [Compound 10, l-(2,6-difluorobenzoyl)-3-(4-cyanophenyl)urea]
Mean tumor Mass Day 1 (B-16 malignant melanoma; [3]): 183

O=C(NC(=O)c1c(F)cccc1F)Nc1ccc(OC(F)(F)C(F)C(F)(F)F)cc1 (stereo not shown) [Compound 11]
Mean tumor Mass Day 1 (B-16 malignant melanoma; [3]): 193

O=C(NC(=O)c1c(F)cccc1F)Nc1ccc(O)cc1 [Compound 12, 1-(2,6-difluorobenzoyl)-3-(4 :aydroxyphenyl)urea]
Mean tumor Mass Day 1 (B-16 malignant melanoma; [3]): 148

O=C(NC(=O)c1c(F)cccc1F)Nc1ccc(C2CCCCC2)cc1 [Compound 13, l-(2,6-difluorobenzoyl)-3-(4-cyclohexylphenyl)urea]
Mean tumor Mass Day 1 (B-16 malignant melanoma; [5]): 205

O=C(NC(=O)c1c(F)cccc1F)Nc1ccc(Cl)c(Cl)c1 [Compound 15, 1-(2,6-difluorobenzoyl)-3-(3,4-dichlorophenyl)urea]
Mean tumor Mass Day 1 (B-16 malignant melanoma; [3]): 151

O=C(NC(=O)c1c(Cl)cccc1Cl)Nc1ccc(Cl)cc1 [Compound 17, 1-(2,6-dichlorobenzoyl)-3-(4-chlorophenyl)urea]
Mean tumor Mass Day 1 (B-16 malignant melanoma; [5]): 347

O=C(NC(=O)c1c(Cl)cccc1Cl)Nc1ccc(C(F)(F)F)cc1 [Compound 18, 1-(2,6-dichlorobenzoyl)-3-(4-trifluoromethylphenyl)urea]
Mean tumor Mass Day 1 (B-16 malignant melanoma; [5]): 314

O=C(NC(=O)c1ccccc1)Nc1ccc(Cl)cc1 [Compound 19, 1-benzoyl-3-(4-chlorophenyl)urea]
Mean tumor Mass Day 1 (B-16 malignant melanoma; [3]): 159

O=C(NC(=O)c1c(F)cccc1F)Nc1ccc(C(F)(F)F)cc1O [Compound 20, 1-(2,6-difluorobenzoyl)-3-(2-hydroxy-4-trifluoromethylphenyl)urea]
activity at 500 µg/mL (melanoma B-16 cells; suspension): 91%
activity at 5000 µg/mL (melanoma B-16 cells; suspension): 81%

O=C(NC(=O)c1ccccc1Cl)Nc1ccc(C(F)(F)F)cc1O [Compound 21, 1-(2-chlorobenzoyl)-3-(2-hydroxy-4-trifluoromethylphenyl)urea]
activity at 300 µg/mL (melanoma B-16 cells; [1]): 43%
activity at 300 µg/mL (melanoma B-16 cells; [2]): 50%
activity at 500 µg/mL (melanoma B-16 cells; suspension): 101%
activity at 5000 µg/mL (melanoma B-16 cells; suspension): 71%
